From ChEMBL document CHEMBL1154198, “Chemical genetics of Plasmodium falciparum” (Nature, 2010)
pEC50: −log10 of the molar value.

Experiments:
[1] = tested on: Plasmodium falciparum; assay: ST_JUDE: Plasmodium falciparum 3D7 EC50 (uM) as measured by SYBR green dye; format: functional, organism-based
[2] = tested on: Plasmodium falciparum; assay: ST_JUDE: Plasmodium falciparum K1 EC50 (uM) as measured by SYBR green dye; format: functional, organism-based

SMILES | pEC50 [1] | pEC50 [2]
Cc1[nH]c2c(-c3ccc(Cl)cc3)cnn2c(=O)c1Cc1ccccc1 | 5.16 | 5.16
O=C(Nc1cccc(C(F)(F)F)c1)Nc1ccc(Cl)c(Cl)c1 | < 4.82 | 6.13
Cc1cc(N2CCC(N(C)C3CCCC3)CC2)nc2cc(O)ccc12 | 5.81 | < 4.82
CCCN1CCN(CCCNC(=O)c2ccc3c(c2)sc2nc(-c4ccc(OC)cc4)cn23)CC1 | 6.08 | < 4.82
CCCS(=O)(=O)N1CCC(CO)(Cc2ccccc2C(F)(F)F)CC1 | 5.47 | 5.65
Fc1ccccc1Nc1nc(NCc2ccccc2)c2ccccc2n1 | 5.46 | 5.04
OCCNc1nc(Nc2ccc(Cl)cc2)nc2ccccc12 | 5.99 | 5.49
COc1ccccc1/C=C/C(=O)Nc1ccc(Cl)c(C(F)(F)F)c1 | < 4.82 | < 4.82
O=C(Cc1cccc(F)c1)N1CCC(=O)N(CC2CC2)CC1 | < 4.82 | < 4.82
CCN(CC)c1ccc(CNC(C)C(O)c2ccccc2)cc1 (stereo not given) | 5.39 | 6.01
CC(C)c1ccc(CN(Cc2ccco2)C(=O)COc2ccccc2Cl)cc1 | 5.13 | < 4.82
Cc1ccc(CN2c3ccccc3C(O)=C(/C=N/c3ccc4c(c3)N3CCN=C3S4)S2(=O)=O)cc1 | 5.66 | < 4.82
CCc1cccc2c(C#N)cn(CCOc3ccccc3F)c12 | 5.90 | 6.01
OCCN1CCN(c2nc(Nc3ccc(F)cc3)c3cnn(-c4ccccc4)c3n2)CC1 | 5.92 | 5.86
CC(C)(C)c1cc(C(=O)Cn2c(NCCO)nc3ccccc32)cc(C(C)(C)C)c1O | < 4.82 | < 4.82
COc1ccc(Cn2c(SCc3cccc(F)c3)nc3nccnc3c2=O)cc1 | < 4.82 | < 4.82
CC(C)(C)CC(C)(C)c1ccc(O)c(CN2CCN(c3ccccc3)CC2)c1 | 6.45 | 6.76
CC(/C=N/NC(=O)c1cc(-c2ccc(OC(C)C)cc2)n[nH]1)=C\c1ccccc1 | < 4.82 | < 4.82
O=C(c1ccc(C(F)(F)F)cc1)N(Cc1ccc(OCc2ccc(F)cc2)cc1)Cc1cccnc1 | < 4.82 | < 4.82
O=C(Cc1ccccc1)NC(c1ccc([N+](=O)[O-])cc1)c1c(O)ccc2ccccc12 (stereo not given) | 5.20 | 5.24
Cc1ccc(C(NC(=O)CC(C)C)c2ccc3cccnc3c2O)cc1 (stereo not given) | < 4.82 | < 4.82
COc1ccccc1/C=C/CN1CCC2(CCC(CNC(=O)C3CCOCC3)O2)CC1 (stereo not given) | < 4.82 | < 4.82

SMILES | pEC50 [1] | pEC50 [2]
O=C(Nc1cccc(Cl)c1)Nc1ccccc1OC(F)(F)C(F)F | 5.51 | 5.88
COc1ccc(CCNC(=S)Nc2ccccc2Cl)cc1 | 5.31 | 5.32
CCOC(=O)c1ccccc1NC(=S)N1CCCN(Cc2ccc(NC(C)=O)cc2)CC1 | 5.78 | 5.60
c1ccc(CN2CCN(c3nc(N(c4ccccc4)c4ccccc4)nc(-n4ccnc4)n3)CC2)cc1 | 5.61 | 5.74
O=C(C1CCCO1)N1N=C(c2c(O)nc3ccc(Cl)cc3c2-c2ccccc2)CC1c1ccco1 (stereo not given) | < 4.82 | < 4.82
CC(=O)c1cccc(CN2CCN(CC(C)C)C(CCO)C2)c1 (stereo not given) | < 4.82 | < 4.82
Cc1cc(N(C)C)nc(Nc2ccc(NS(=O)(=O)c3cccc(Cl)c3)cc2)n1 | 5.11 | < 4.82
CCCc1cc(O)nc(-n2nc(C)cc2NC(=O)c2ccc(C(C)(C)C)cc2)n1 | < 4.82 | 5.06
COc1ccc2nc(N(Cc3cccnc3)C(=O)Cc3ccccc3)sc2c1 | 5.26 | 5.43
CCN(CC)CCN1C(=O)c2oc3ccccc3c(=O)c2C1c1cccc(Cl)c1 (stereo not given) | 6.01 | 5.96
COc1cccc(CNC(=O)C2c3ccccc3C(=O)N(CC(C)C)C2c2cccs2)c1 (stereo not given) | 5.28 | 5.38
Cc1ccc(Nc2cc(C)nc(Nc3ccc(NS(=O)(=O)c4cccc(F)c4)cc3)n2)cc1 | 5.91 | < 4.82
CCN(CC)CC/N=c1\cc(-c2ccc(OC)c(OC)c2)oc2ccc(Cl)cc12.[O-][Cl+3]([O-])([O-])O | 6.27 | 5.29
COc1ccc(Nc2cc(C)nc(Nc3ccc(NS(=O)(=O)c4cccc(C)c4)cc3)n2)cc1 | 5.70 | < 4.82
Cc1ccc(C)c(C(Nc2ccccn2)c2cc(Cl)c3cccnc3c2O)c1 (stereo not given) | < 4.82 | < 4.82
O=C(NNc1nc2ccc(F)cc2s1)c1ccc(F)cc1 | < 4.82 | 5.15
CCc1ccccc1NC(=O)C1c2ccccc2C(=O)N2CCc3ccccc3C12 (stereo not given) | 6.08 | 5.93
CCO/C(O)=C1\C(C)=NC2=C(C(=O)CC(C)(C)C2)C1c1ccc(Cl)cc1Cl (stereo not given) | 5.53 | 5.72
CN1C(=O)C(=Cc2ccc(-c3ccc(O)c(C(=O)O)c3)o2)C(=O)N(C)C1=O | < 4.82 | < 4.82
CCC1CCCCN1CCCNC(=S)Nc1ccc2nc(N3CCN(CC)CC3)cc(C)c2c1 (stereo not given) | 5.36 | 5.04
CCCCNc1ccc2cccc(O)c2n1 | < 4.82 | 5.36
Cc1ccccc1C(=O)N(Cc1cccnc1)c1nc2c(F)cccc2s1 | 5.33 | < 4.82

SMILES | pEC50 [1] | pEC50 [2]
CCc1c(C)nc(-n2nc(C)cc2NC(=O)c2ccccc2I)nc1O | < 4.82 | < 4.82
CCCc1cc(O)nc(-n2nc(C)cc2NC(=O)c2cc(Cl)ccc2Cl)n1 | < 4.82 | < 4.82
CCN(C(=O)c1cc2cc3ccc(OC)cc3nc2o1)c1ccc(F)cc1 | < 4.82 | < 4.82
Cc1ccc(S(=O)(=O)NCC(c2cccnc2)N2CCN(c3ccccc3F)CC2)cc1 (stereo not given) | < 4.82 | < 4.82
CCCOCc1cc(CN2CCN(c3cccc(Cl)c3)CC2)c(O)c2ncccc12 | 5.96 | 6.05
Oc1ccc(C(=C(Cl)Cl)c2ccc(O)cc2)cc1 | 5.61 | 6.03
Cc1cc(C)c2nc(NC(=O)CSc3ccc(F)cc3)sc2c1 | < 4.82 | < 4.82
O=C(c1cccc(F)c1)N(Cc1cccnc1)c1nc2ccc(F)cc2s1 | < 4.82 | 5.37
CCc1ccc(C2C(C#N)=C(N)N(c3cccc(Cl)c3)C3=C2C(=O)CCC3)s1 (stereo not given) | < 4.82 | < 4.82
CCOC(=O)c1ccc2nc(C)cc(Nc3ccc(N(C)C)cc3)c2c1 | 5.55 | 5.42
COc1nc(N=C(N)N)nc2c(C)cccc12 | 5.62 | 5.47
CN(C)S(=O)(=O)c1ccc(C(=O)NNc2nc3ccc(Cl)cc3s2)cc1 | 5.33 | 5.35
CCCOc1ccc(Oc2nc(NCC)nc(OC)n2)nn1 | 5.73 | 5.37
CCCCCCCn1c(=N)n(CC(O)COc2ccccc2)c2ccccc21 (stereo not given) | 5.80 | 5.85
CC(=O)Nc1ccc(S(=O)(=O)Nc2ccc(Nc3nc(C)cc(N4CCCC4)n3)cc2)cc1 | 6.24 | 5.46
CCCCOC(=O)c1ccc(Nc2cc(C)nc3ccccc23)cc1 | 5.47 | < 4.82
Cc1cc(NC(=O)CSc2ccc3nnc(-c4ccc(Cl)cc4)n3n2)no1 | < 4.82 | < 4.82
COc1ccc(OC)c2sc(NNC(=O)c3ccc(S(=O)(=O)N(C)C)cc3)nc12 | 5.17 | 5.18
COc1ccc(C(=O)CSc2nnc(Cc3cc(O)nc(O)n3)n2-c2ccc(Cl)cc2)cc1 | < 4.82 | < 4.82
CCCCOc1ccc(S(=O)(=O)Nc2ccc(Nc3nc(C)cc(N(C)C)n3)cc2)cc1 | 5.78 | < 4.82
CCOC(=O)C(NC(=O)CC)(Nc1ccc(S(=O)(=O)Nc2cc(C)on2)cc1)C(F)(F)F (stereo not given) | 5.35 | 5.05
CCOC(=O)c1cnc2ccc(OCC)cc2c1NCCCN1CCOCC1 | 5.97 | 5.63

SMILES | pEC50 [1] | pEC50 [2]
CCCO/C(O)=C1\C(C)=NC2=C(C(=O)CC(c3ccc(Cl)cc3)C2)C1c1cccc(O)c1 (stereo not given) | 5.32 | 5.35
COc1cccc(Nc2nc(NCC3CCCO3)c3ccccc3n2)c1 (stereo not given) | 5.97 | 5.77
COc1ccc(C2Sc3ccccc3N=C3C2=C(O)c2ccccc23)cc1 (stereo not given) | 5.76 | 5.64
CC(=O)C1=C(c2ccc(Br)cc2)N(C(C)=O)n2cnnc2S1 | < 4.82 | 5.81
CCN(CC)CCNC(=O)CCc1nnc2n(Cc3ccc(Cl)cc3)c(=O)c3ccccc3n12 | < 4.82 | < 4.82
CCCOc1ccc(/C=C/c2ccc3cccc(O)c3n2)cc1 | < 4.82 | < 4.82
COc1cc(OC)cc(-c2nnc(NC(=O)c3cccc(S(C)(=O)=O)c3)o2)c1 | < 4.82 | < 4.82
COc1ccc(Nc2cc(C)nc(Nc3ccc(NS(=O)(=O)c4ccc(C)cc4)cc3)n2)cc1 | 6.25 | < 4.82
CCC1=Nc2cc(C(=O)NCc3ccco3)ccc2Sc2ccc(Cl)cc21 | 5.43 | 5.20
CCCN(CCC)CCCNC(=O)c1cc2c(-c3ccc(OC)c(OC)c3)nn(C)c2s1 | 5.39 | < 4.82
COC(=O)c1c(S(=O)(=O)N2CCCCCC2)sc2c1CCN(Cc1ccc(F)c(OC)c1)C2 | < 4.82 | < 4.82
CN1CCN(Cc2c(O)ccc3c(=O)c(Oc4ccccc4Cl)c(C(F)(F)F)oc23)CC1 | 5.77 | 6.15
CN(C)S(=O)(=O)c1ccc(C(=O)NNc2nc3ccc(F)cc3s2)cc1 | 5.22 | 5.37
CC(C)CN1CCC(C(=O)Nc2ccc(-c3nc4ccccc4[nH]3)cc2)CC1 | < 4.82 | < 4.82
COc1cccc(OCC(=O)NCc2ccccc2)c1 | < 4.82 | < 4.82
COc1ccc(-n2c(C)cc(/C=c3\sc4nc5ccccc5n4c3=O)c2C)cc1 | < 4.82 | < 4.82
Cc1ccc(S(=O)(=O)N(CC(=O)N2CCCCCC2)Cc2ccc(Cl)cc2)cc1 | < 4.82 | < 4.82
CC(=O)NC1=NN(C(C)=O)C(C)(c2cccc(NC(C)=O)c2)S1 (stereo not given) | 5.45 | 5.38
CN(C)c1ccc(-c2n(C)c3ccccc3[n+]2C)cc1 | < 4.82 | 5.36
